Source: ChEMBL document CHEMBL4665641, “Lead optimization and efficacy evaluation of quinazoline-based BET family inhibitors for potential treatment of cancer and inflammatory diseases” (Bioorg Med Chem Lett, 2019)

Key:
[1] = target: T1, Bromodomain-containing protein 4 (Homo sapiens, UniProt O60885); assay: Inhibition of human full-length recombinant N-terminal His-tagged BRD4 (2 to 1362 residues) expressed in Sf9 cells using histone H4 peptide containing acetylated lysine residues as substrate preincubated with enzyme for 30 mins followed by incubation with substrate for 30 mins by Alphascreen assay […]
[2] = target: T1, Bromodomain-containing protein 4; assay: Competitive binding affinity to human partial length BRD4 (BD1,2) (N44 to E460 residues) expressed in bacterial expression system by BROMOscan assay
Kasumi 1 [3] = assay: Antiproliferative activity against human Kasumi-1 cells after 72 hrs by Celltiter-Glo assay; type: functional, cell-based; details: Kasumi 1, 72 h
[4] = Stability in mouse liver microsomes assessed as half life; type: ADME, Microsome
[5] = Drug uptake in tumor tissue of CB17 SCID mouse xenografted with human Kasumi-1 cells at 40 mg/kg, po QD for 25 days and measured after 24 hrs post last dose; type: ADME, organism-based, Neoplasm; details: time 25 day, read-out: Drug uptake
[6] = Cmax in CD-1 mouse at 10 mg/kg, po; type: ADME, organism-based; design: route oral, dose 10 mg/kg; details: CD-1, mouse, in vivo, read-out: Cmax
[7] = Volume of distribution at steady state in CD-1 mouse at 2 mg/kg, iv; type: ADME, organism-based; details: in vivo, read-out: Vdss
[8] = Half life in CD-1 mouse at 2 mg/kg, iv; type: ADME, organism-based; details: in vivo
MV4-11 = assay: Cytotoxicity against human MV4-11 cells assessed as inhibition of cell viability; type: functional, cell-based
[9] = Drug uptake in tumor tissue of CB17 SCID mouse xenografted with human Kasumi-1 cells at 10 mg/kg, po QD for 25 days and measured after 24 hrs post last dose; type: ADME, organism-based, Neoplasm; details: time 25 day, read-out: Drug uptake
Kasumi 1 [10] = assay: Antitumor activity against human Kasumi-1 cells xenografted in CB17 SCID mouse assessed as inhibition of tumor growth at 10 mg/kg, po QD for 25 days; type: functional; details: Kasumi 1, po, 600 h, time 25 day, read-out: TGI
[11] = Plasma clearance in CD-1 mouse at 2 mg/kg, iv; type: ADME, organism-based
[12] = AUC(0 to infinity) in CD-1 mouse at 2 mg/kg, iv; type: ADME, organism-based; design: time infinity, route intravenous, dose 2 mg/kg; details: CD-1, mouse, in vivo
Kasumi 1 [13] = assay: Antitumor activity against human Kasumi-1 cells xenografted in CB17 SCID mouse assessed as inhibition of tumor growth at 40 mg/kg, po QD for 25 days; type: functional; details: Kasumi 1, po, 600 h, time 25 day, read-out: TGI
[14] = Stability in rat liver microsomes assessed as half life; type: ADME, Microsome
Kasumi 1 [15] = assay: Antitumor activity against human Kasumi-1 cells xenografted in CB17 SCID mouse assessed as tumor volume at 40 mg/kg, po QD for 25 days (reference value: 2189 +/- 604 mm3); type: functional; details: time 25 day
[16] = Half life in CD-1 mouse at 10 mg/kg, po; type: ADME, organism-based; details: in vivo
Kasumi 1 [17] = assay: Antitumor activity against human Kasumi-1 cells xenografted in CB17 SCID mouse assessed as tumor weight at 10 mg/kg, po administered for 25 days (reference value: 2.57 +/- 0.27 g); type: functional; details: time 25 day
[18] = AUC(0 to infinity) in CD-1 mouse at 10 mg/kg, po; type: ADME, organism-based; design: route oral, time infinity, dose 10 mg/kg; details: in vivo; for AUC(0-inf): CD-1, mouse
[19] = Stability in human liver microsomes assessed as half life; type: ADME, Microsome
Kasumi 1 [20] = assay: Antitumor activity against human Kasumi-1 cells xenografted in CB17 SCID mouse assessed as tumor weight at 40 mg/kg, po QD for 25 days (reference value: 2.57 +/-0.27 g); type: functional; details: time 25 day
Kasumi 1 [21] = assay: Antitumor activity against human Kasumi-1 cells xenografted in CB17 SCID mouse assessed as tumor volume at 10 mg/kg, po QD for 25 days (reference value: 2189 +/- 604 mm3); type: functional; details: time 25 day
[22] = Toxicity in CB17 SCID mouse xenografted with human Kasumi-1 cells assessed body weight loss at 10 to 40 mg/kg, po QD for 25 days; type: organism-based; details: in vivo, 600 h, dose 10-40 mg/kg, time 25 day
[23] = Cmax in CD-1 mouse at 2 mg/kg, iv measured after 5 mins; type: ADME, organism-based; design: route intravenous, dose 2 mg/kg; details: in vivo
Kasumi 1 [24] = assay: Antitumor activity against human Kasumi-1 cells xenografted in CB17 SCID mouse assessed as inhibition of tumor growth at 10 mg/kg, po QD for 29 days; type: functional; details: Kasumi 1, po, 696 h, time 29 day, read-out: TGI
[25] = Oral bioavailability in CD-1 mouse at 10 mg/kg; type: ADME, organism-based; details: CD-1, mouse, in vivo
Kasumi 1 [26] = assay: Antitumor activity against human Kasumi-1 cells xenografted in CB17 SCID mouse assessed as tumor weight at 10 mg/kg, po QD for 29 days (reference value: 2.1+/- 0.3 g); type: functional; details: time 29 day
Kasumi 1 [27] = assay: Antitumor activity against human Kasumi-1 cells xenografted in CB17 SCID mouse assessed as tumor volume at 10 mg/kg, po QD for 29 days (reference value: 1734 +/- 220 mm3); type: functional; details: time 29 day
[28] = Toxicity in CB17 SCID mouse xenografted with human Kasumi-1 cells assessed body weight loss at 40 mg/kg, po QD for 25 days; type: organism-based; details: in vivo, 600 h, time 25 day
Mus musculus [29] = assay: (§1) Antiinflammatory activity in collagen/complete freund's adjuvant-induced arthritis DBA/1 mouse model assessed as MCP-1 level in rear right paw at 1 mg/kg, po administered via gavage starting from day 21 to day 41 post collagen/CFA challenge and measured on day 42 measured per mg protein (reference value: 126.24 pg); type: functional; details: time 21 day
Mus musculus [30] = assay: as §1, with “IFN-gamma” for “MCP-1”, “0.78” for “126.24”; type: functional; details: time 21 day
Mus musculus [31] = assay: as §1, with “IL-6” for “MCP-1”, “180.7” for “126.24”; type: functional; details: time 21 day
Mus musculus [32] = assay: as §1, with “TNF-alpha” for “MCP-1”, “0.88” for “126.24”; type: functional; details: time 21 day
Mus musculus [33] = assay: as §1, with “VEGF” for “MCP-1”, “0.98” for “126.24”; type: functional; details: time 21 day
Mus musculus [34] = assay: as §1, with “IL-2” for “MCP-1”, “0.2” for “126.24”; type: functional; details: time 21 day
Mus musculus [35] = assay: as §1, with “IP-10” for “MCP-1”, “6.23” for “126.24”; type: functional; details: time 21 day
[36] = Toxicity in collagen/CFA induced arthritis DBA/1 mouse model assessed as body weight loss at 1 mg/kg, po administered via gavage starting from day 21 to day 41 post collagen/CFA challenge and measured on day 0, 18, 21 followed by three times weekly up to 42 days; type: organism-based; details: in vivo, 504 h, time 21 day
Mus musculus [37] = assay: Antiarthritic activity in collagen/complete freund's adjuvant-induced arthritis DBA/1 mouse model assessed as paw thickness at 1 mg/kg, po administered via gavage starting from day 21 to day 41 post collagen/CFA challenge and measured on day 21 by caliper analysis (reference value: 2.48 millimeter); type: functional; details: time 21 day
[38] = Toxicity in collagen/CFA induced arthritis DBA/1 mouse model assessed as body weight at 1 mg/kg, po administered via gavage starting from day 21 to day 41 post collagen/CFA challenge and measured on day 21 relative to initial weight (reference value: 94.96%); type: organism-based; details: in vivo, 504 h, time 21 day
Mus musculus [39] = assay: as §1, with “IL-1 beta” for “MCP-1”, “3.15” for “126.24”; type: functional; details: time 21 day

| SMILES | IC50 [1] [nM] | Kd [2] [nM] | Cmax [6] [ng/mL] | Vd [7] [L/kg] | half-life [8] [h] | clearance [11] [mL/min/kg] | AUC(0-inf) [12] [ng·h/mL] | half-life [16] [h] | bioavailability [25] [%] | AUC(0-inf) [18] [ng·h/mL] | Cmax ([23]; CD-1, mouse, read-out: Cmax) [ng/mL] | concentration at 600 h [5] [ng/g] | IC50 (MV4-11) [nM] | Activity (Kasumi 1 [15]) [mm3] | Activity (Kasumi 1 [17]) [g] | Activity (Kasumi 1 [20]) [g] | Activity (Kasumi 1 [21]) [mm3] | inhibition in vivo at 10 mg/kg (Kasumi 1 [24]) [%] | Activity (Kasumi 1 [26]) [g] | Activity (Kasumi 1 [27]) [mm3] | also measured |
| --- | --- | --- | --- | --- | --- | --- | --- | --- | --- | --- | --- | --- | --- | --- | --- | --- | --- | --- | --- | --- | --- |
| CCNC(=O)C[C@@H]1N=C(c2ccc(Cl)cc2)c2cc(OC)ccc2-n2c(C)nnc21 [MOLIBRESIB] | – | – | – | – | – | – | – | – | – | – | – | 16 | – | 79 | 0.52 | 0.07 | 586 | – | 0.3 | 330 | Activity [28]: Toxic |
| C[C@@H]1C[C@H]2[C@@H]3CCC4=CC(=O)C=C[C@]4(C)[C@@]3(F)[C@@H](O)C[C@]2(C)[C@@]1(O)C(=O)CO [DEXAMETHASONE] | – | – | – | – | – | – | – | – | – | – | – | – | – | – | – | – | – | – | – | – | Activity (Mus musculus [29]): 1.99 pg; Activity (Mus musculus [30]): 1.5 pg; Activity (Mus musculus [31]): 2.17 pg; Activity (Mus musculus [32]): 0.39 pg; Activity (Mus musculus [33]): 0.85 pg; Activity (Mus musculus [34]): 0.63 pg; Activity (Mus musculus [35]): 0.86 pg; Activity [36]: Toxic; Activity (Mus musculus [37]): 1.53 mm; Activity [38]: 92.74%; Activity (Mus musculus [39]): 2.32 pg |
| Cc1cc(-c2ccc3nc(-c4cnn(CC(C)(C)O)c4)nc(N4CCOC[C@@H]4c4ccc(F)cc4)c3c2)cn(C)c1=O | 6 | 20 | 3180 | 1.08 | 2.6 | 4.5 | 7400 | 4.2 | 123 | 45700 | 2260 | – | – | – | – | – | – | 41 | 1.24 | 977 | – |

The next lines start with results.

| IC50 [1] [nM] | Kd [2] [nM] | Cmax [6] [ng/mL] | Vd [7] [L/kg] | half-life [8] [h] | clearance [11] [mL/min/kg] | AUC(0-inf) [12] [ng·h/mL] | half-life [16] [h] | bioavailability [25] [%] | AUC(0-inf) [18] [ng·h/mL] | Cmax ([23]; CD-1, mouse, read-out: Cmax) [ng/mL] | SMILES | concentration at 600 h [5] [ng/g] | IC50 (MV4-11) [nM] | Activity (Kasumi 1 [15]) [mm3] | Activity (Kasumi 1 [17]) [g] | Activity (Kasumi 1 [20]) [g] | Activity (Kasumi 1 [21]) [mm3] | inhibition in vivo at 10 mg/kg (Kasumi 1 [24]) [%] | Activity (Kasumi 1 [26]) [g] | Activity (Kasumi 1 [27]) [mm3] | also measured |
| --- | --- | --- | --- | --- | --- | --- | --- | --- | --- | --- | --- | --- | --- | --- | --- | --- | --- | --- | --- | --- | --- |
| 76 | 230 | 2040 | 1.28 | 1.5 | 10.1 | 3370 | 1.8 | – | – | – | Cc1noc(C)c1-c1ccc2nc(-c3cnn(CC(C)(C)O)c3)nc(N3CCOC[C@@H]3C3CC3)c2c1 | 4210 | 1660 | 51 | 1.31 | 0.03 | 1001 | – | – | – | IC50 (Kasumi 1 [3]): 520 nM; t1/2 [4]: 1.7 h; concentration at 600 h [9]: 303 ng/g; inhibition in vivo at 10 mg/kg (Kasumi 1 [10]): 49.1%; inhibition in vivo at 40 mg/kg (Kasumi 1 [13]): 98.8%; half-life [14]: 0.55 h; AUC ([18]; mouse): 15013 ng·h/mL; half-life [19]: 1.77 h; Activity [22]: Non-Toxic; Cmax ([23]; mouse, 5 min): 1940 ng/mL |
| 11 | 23 | 2870 | 0.89 | 2.1 | 3.8 | 9330 | 2.7 | 85 | 39800 | 2450 | Cc1cc(-c2ccc3nc(-c4cnn(CC(C)(C)O)c4)nc(N4CCOC[C@@H]4c4ccccc4)c3c2)cn(C)c1=O | – | 240 | – | – | – | – | 65.1 | 0.73 | 588 | – |
